# Results as given in patent publication US9328138B2 (priority 2011, dated 2016).
# Legend:
# [1] = target: HCV NS3 protease genotype 3a (3A-1) (Hepatitis C virus genotype 3a, UniProt Q81258); assay: HCV NS3 protease time-resolved fluorescence (TRF) assay, genotype 3a; type: biochemical; conditions: Ki 3a
# Summary of the method: (§1)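 Time-resolved fluorescence, ex 340/em 615 nm, 400 μs delay; IC50 by four-parameter fit. Enzyme preincubated with compound 10 min, then TRF substrate 25 nM final added and reaction run 6 h at RT. Buffer HEPES pH 7.5 with NaCl, glycerol, Triton X-100, DTT, PEG 8000.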
# [2] = target: T1, HCV genotype 1b (BK) NS3 modified enzyme with a R155K mutation (Hepatitis C virus genotype 1b, UniProt P26663, R1181K); assay: HCV NS3 protease time-resolved fluorescence (TRF) assay, genotype 1b R155K; type: biochemical; conditions: Ki 1b R155K
# T1 construct: HCV genotype 1b (BK) NS3 modified enzyme
# Summary of the method: as §1
# [3] = genotype 1b (BK) NS3 R155K, single value
SMILES,Ki [1] [nM],"Ki [2, 3] [nM]",Ki ([2]; first of two values printed in the cell (not explained)) [nM],Ki ([2]; second of two values printed in the cell (not explained)) [nM]
"C=C[C@@H]1C[C@]1(NC(=O)[C@@H]1C[C@@H]2CN1C(=O)[C@H](C(C)(C)C)NC(=O)O[C@@H]1CCC[C@H]1CCCCCc1c(nc3ccccc3c1OCCCN1CCCCC1)O2)C(=O)NS(=O)(=O)C1(COC)CC1 [Example 96, (3aR,7S,10S,12R,24aR)-7-tert-butyl-N-[(1R,2S)-2-ethenyl-1-({[1-(methoxymethyl)cyclopropyl]sulfonyl}carbamoyl)cyclopropyl]-5,8-dioxo-19-[3-(piperidin-1-yl)propoxy]-1,2,3,3a,5,6,7,8,11,12,20,21,22,23,24,24a-hexadecahydro-10H-9,12-methanocyclopenta[18,19][1,10,3,6]dioxadiazacyclononadecino[11,12-b]quinoline-10-carboxamide]",0.78,0.15,–,–
"C=C[C@@H]1C[C@]1(NC(=O)[C@@H]1C[C@@H]2CN1C(=O)[C@H](C(C)(C)C)NC(=O)O[C@@H]1CCC[C@H]1CC/C=C/Cc1c(nc3ccccc3c1OCCCOC)O2)C(=O)NS(=O)(=O)C1(C)CC1 [Example 90, (3aR,7S,10S,12R,21E,24aS)-7-tert-butyl-N-[(1R,2S)-2-ethenyl-1-{[(1-methylcyclopropyl)sulfonyl]carbamoyl}cyclopropyl]-19-(3-methoxypropoxy)-5,8-dioxo-1,2,3,3a,5,6,7,8,11,12,20,23,24,24a-tetradecahydro-10H-9,12-methanocyclopenta[18,19][1,10,3,6] dioxadiazacyclononadecino [11,12-b]quinoline-10-carboxamide]",1.6,0.15,–,–
"C=C[C@@H]1C[C@]1(NC(=O)[C@@H]1C[C@@H]2CN1C(=O)[C@H](C1CCCC1)NC(=O)O[C@@H]1CCC[C@H]1CC/C=C/Cc1c(nc3ccccc3c1OCc1ccccc1)O2)C(=O)NS(=O)(=O)C1(C)CC1 [Example 15, (3aR,7S,10S,12R,21E,24aS)-19-(benzyloxy)-7-cyclopentyl-N-[(1H,2S)-2-ethenyl-1-{[(1-methylcyclopropyl)sulfonyl]carbamoyl}cyclopropyl]-5,8-dioxo-1,2,3,3a,5,6,7,8,11,12,20,23,24,24a-tetradecahydro-10H-9,12-methanocyclopenta[18,19] [1,10,3,6]dioxadiazacyclononadecino[11,12-b] quinoline-10-carboxamide]",36,0.81,–,–
"C=C[C@@H]1C[C@]1(NC(=O)[C@@H]1C[C@@H]2CN1C(=O)[C@H](C1CCCC1)NC(=O)N1CC[C@@H](C1)OCCC/C=C/Cc1c(nc3ccccc3c1OCC)O2)C(=O)NS(=O)(=O)C1CC1 [Example 16, (2R,4S,7S,13S,18E)-7-cyclopentyl-N-{(1R,2S)-1-[(cyclopropylsulfonyl)carbamoyl]-2-ethenylcyclo-propyl}-21-ethoxy-6,9-dioxo-3,4,6,7,8,9,12,13, 15,16,17,20-dodecahydro-2H,11H-2,5:10,13-dimethano[1,14,5,7,10]dioxatriazacyclodocosino [15,16-b]quinoline-4-carboxamide]",70,1.1,–,–
"C=C[C@@H]1C[C@]1(NC(=O)[C@@H]1C[C@@H]2CN1C(=O)[C@H](C1(C)CCCCC1)NC(=O)O[C@@H]1C[C@H]1CCCCCc1c(nc3ccccc3c1OC1CCNCC1)O2)C(=O)NS(=O)(=O)C1(C)CC1 [Example 268, (1aR,5S,8S,10R,22aR)—N-[(1R,2S)-2-ethenyl-1-{[(1-methylcyclopropyl)sulfonyl]carbamoyl}cyclopropyl]-5-(1-methylcyclohexyl)-3,6-dioxo-17-(piperidin-4-yloxy)-1,1a,3,4,5,6,9,10,18,19,20,21,22,22a-tetradecahydro-8H-7,10-methanocyclopropa[18,19][1,10,3,6]dioxadiazacyclononadecino[11,12-b]quinoline-8-carboxamide]",0.2,–,0.012,0.034
